Test results reported in PMC7283026 (Neuro-Oncology, 2020).
Each block holds one compound with its values, some of them ahead of it.

How the values were obtained:
human P-gp = human P-gp (Homo sapiens, UniProt P08183); format: in vitro ADME; settings: LLC-PK1
mouse P-gp = mouse P-gp (Mus musculus, UniProt P21447); format: in vitro ADME; settings: LLC-PK1
[1] = Kinetic lipid membrane binding assay; format: in vitro ADME, porcine; settings: pig, pH 7.4
P-gp = settings: cited from earlier work
[2] = rat plasma; from FDA pharmacology reviews; cited from earlier work
[3] = cited from earlier work; for Cave,ss, reported clinical concentration: patients, efficacious dose
[4] = Brain distribution study following i.v. bolus and i.v. infusion in rats; settings: rat; for δ brain concentration at SS / δ plasma concentration at SS: difference between the two time points, (SD)
[5] = Plasma protein binding by equilibrium dialysis, human plasma; format: in vitro ADME; settings: pH 7.5
[6] = Plasma protein binding by equilibrium dialysis, mouse plasma; format: in vitro ADME; settings: pH 7.5
[7] = Plasma protein binding, rat plasma; format: in vitro ADME; settings: pH 7.5
[8] = system: KM12-Luc intracranial tumor; test: Efficacy in KM12-Luc intracranial tumor xenograft mouse model; format: in vivo, athymic nu/nu mice; settings: 28 days
[9] = Plasma pharmacokinetics in KM12-Luc ITC tumor-bearing mice; format: in vivo, Balb/c nude mice; settings: for AUC(0-t): Balb/c nude, mouse, in vivo, po
[10] = Single oral-dose in vivo PK study of rats; settings: rat
BNN2 and BNN4 gliomas = settings: clinically relevant systemic exposures; cited from earlier work
TRKA/B/C = settings: read-out: IC50 against TRKA/B/C; cited from earlier work
[11] = system: breast cancer resistance protein (BCRP); settings: cited from earlier work
[12] = recommended human oral dose of 600 mg/kg q.d.

human P-gp, sequence (P08183 whole entry): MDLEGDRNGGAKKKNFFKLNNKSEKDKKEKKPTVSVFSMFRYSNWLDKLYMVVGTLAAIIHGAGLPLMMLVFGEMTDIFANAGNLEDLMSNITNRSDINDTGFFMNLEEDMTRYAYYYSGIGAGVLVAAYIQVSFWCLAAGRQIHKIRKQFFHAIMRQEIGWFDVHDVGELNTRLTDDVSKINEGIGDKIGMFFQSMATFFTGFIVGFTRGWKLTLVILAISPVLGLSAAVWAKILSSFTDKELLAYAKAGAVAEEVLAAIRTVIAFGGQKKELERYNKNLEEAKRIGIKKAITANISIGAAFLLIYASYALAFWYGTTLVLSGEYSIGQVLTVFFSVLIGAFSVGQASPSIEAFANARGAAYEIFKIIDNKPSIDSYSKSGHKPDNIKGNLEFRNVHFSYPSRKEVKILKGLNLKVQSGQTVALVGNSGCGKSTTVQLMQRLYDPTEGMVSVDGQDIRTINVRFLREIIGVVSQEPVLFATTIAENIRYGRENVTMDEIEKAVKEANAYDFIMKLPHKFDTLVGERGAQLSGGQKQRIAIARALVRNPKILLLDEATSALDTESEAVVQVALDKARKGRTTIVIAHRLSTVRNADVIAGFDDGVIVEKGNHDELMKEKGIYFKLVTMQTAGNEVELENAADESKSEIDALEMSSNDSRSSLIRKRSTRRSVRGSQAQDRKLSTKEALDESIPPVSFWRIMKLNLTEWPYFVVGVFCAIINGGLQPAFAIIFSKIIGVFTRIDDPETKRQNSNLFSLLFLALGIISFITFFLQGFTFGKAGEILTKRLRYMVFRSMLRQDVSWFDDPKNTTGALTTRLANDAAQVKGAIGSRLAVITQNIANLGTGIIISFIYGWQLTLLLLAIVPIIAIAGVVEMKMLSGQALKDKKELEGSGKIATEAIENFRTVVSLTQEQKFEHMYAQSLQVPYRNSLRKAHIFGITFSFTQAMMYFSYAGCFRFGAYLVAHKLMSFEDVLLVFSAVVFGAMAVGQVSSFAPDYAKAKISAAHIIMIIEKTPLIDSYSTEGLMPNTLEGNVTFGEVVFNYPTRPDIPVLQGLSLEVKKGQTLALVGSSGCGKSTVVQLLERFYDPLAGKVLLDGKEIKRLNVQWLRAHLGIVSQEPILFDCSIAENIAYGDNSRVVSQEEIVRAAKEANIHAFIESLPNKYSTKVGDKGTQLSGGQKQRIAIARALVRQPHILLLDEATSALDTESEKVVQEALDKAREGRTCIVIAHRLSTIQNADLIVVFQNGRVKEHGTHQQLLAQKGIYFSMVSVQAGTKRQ
mouse P-gp, sequence (P21447 whole entry): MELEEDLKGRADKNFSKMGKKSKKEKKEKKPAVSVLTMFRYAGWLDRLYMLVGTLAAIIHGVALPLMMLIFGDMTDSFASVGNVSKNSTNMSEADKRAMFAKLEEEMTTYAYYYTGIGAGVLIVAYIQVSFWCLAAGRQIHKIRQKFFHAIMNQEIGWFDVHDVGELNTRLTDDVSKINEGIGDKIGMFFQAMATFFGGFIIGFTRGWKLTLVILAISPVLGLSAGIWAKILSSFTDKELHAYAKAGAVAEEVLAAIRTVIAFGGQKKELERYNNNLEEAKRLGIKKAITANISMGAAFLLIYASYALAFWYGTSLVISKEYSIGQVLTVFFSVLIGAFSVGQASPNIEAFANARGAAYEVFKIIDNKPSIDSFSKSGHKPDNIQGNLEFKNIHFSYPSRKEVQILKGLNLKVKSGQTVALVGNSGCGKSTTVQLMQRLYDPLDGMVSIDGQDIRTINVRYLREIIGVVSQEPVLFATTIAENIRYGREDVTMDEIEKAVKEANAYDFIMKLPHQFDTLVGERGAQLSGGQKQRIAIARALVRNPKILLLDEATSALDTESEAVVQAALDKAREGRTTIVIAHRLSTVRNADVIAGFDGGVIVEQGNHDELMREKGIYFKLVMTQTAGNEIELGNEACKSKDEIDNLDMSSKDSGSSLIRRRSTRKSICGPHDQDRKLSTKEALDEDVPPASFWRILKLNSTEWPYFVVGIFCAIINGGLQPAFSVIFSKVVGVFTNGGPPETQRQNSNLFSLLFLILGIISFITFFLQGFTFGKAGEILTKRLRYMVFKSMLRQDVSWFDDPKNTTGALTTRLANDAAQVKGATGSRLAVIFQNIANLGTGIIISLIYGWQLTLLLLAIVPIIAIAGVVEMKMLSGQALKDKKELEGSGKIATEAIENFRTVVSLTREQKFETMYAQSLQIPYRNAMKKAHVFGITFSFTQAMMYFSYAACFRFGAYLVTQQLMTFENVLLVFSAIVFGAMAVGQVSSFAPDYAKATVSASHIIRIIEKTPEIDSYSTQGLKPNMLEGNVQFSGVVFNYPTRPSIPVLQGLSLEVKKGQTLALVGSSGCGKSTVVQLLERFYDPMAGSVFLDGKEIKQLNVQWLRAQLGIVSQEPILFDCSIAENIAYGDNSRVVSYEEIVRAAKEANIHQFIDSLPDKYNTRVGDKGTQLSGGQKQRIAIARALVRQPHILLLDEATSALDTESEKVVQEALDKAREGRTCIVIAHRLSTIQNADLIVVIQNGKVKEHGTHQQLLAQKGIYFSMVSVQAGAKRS

Papp A→B at 3.5 h, 1 µM (human P-gp): 1.38 ± 0.03 ×10⁻⁶ cm/s
Papp B→A at 3.5 h, 1 µM (human P-gp): 38.8 ± 1.7 ×10⁻⁶ cm/s
Papp A→B at 3.5 h, 1 µM (mouse P-gp): 1.2 ± 0.15 ×10⁻⁶ cm/s
Papp B→A at 3.5 h, 1 µM (mouse P-gp): 34.4 ± 1.68 ×10⁻⁶ cm/s
half-life at 10 µM [1]: 7.4 min
Kp at 5 h ([4]; male, Sprague Dawley, in vivo): 0.041
Kp at 6 h ([4]; male, Sprague Dawley, in vivo): 0.028
δ brain concentration at SS [4]: 87 (12.1–131) nM
δ plasma concentration at SS [4]: 12 (47.9–53.7) nM
Compound: C[C@@H](Oc1cc(-c2cnn(C3CCNCC3)c2)cnc1N)c1c(Cl)ccc(F)c1Cl [Crizotinib, crizotinib]
known substrate for P-gp (P-gp): known substrates for P-gp
Fu in plasma [2]: 0.057
Cave,ss, reported clinical concentration [3]: 874 nM

Papp B→A at 3.5 h, 1 µM (human P-gp): 12.1 ± 0.73 ×10⁻⁶ cm/s
efflux ratio at 3.5 h, 1 µM (human P-gp): 11
Papp A→B at 3.5 h, 1 µM (mouse P-gp): 1.22 ± 0.1 ×10⁻⁶ cm/s
Papp B→A at 3.5 h, 1 µM (mouse P-gp): 12.5 ± 0.28 ×10⁻⁶ cm/s
efflux ratio at 3.5 h, 1 µM (mouse P-gp): 10
Compound: C[C@H]1O[C@@H](O[C@H]2[C@@H](O)C[C@H](O[C@H]3[C@@H](O)C[C@H](O[C@H]4CC[C@@]5(C)[C@H](CC[C@@H]6[C@@H]5C[C@@H](O)[C@]5(C)[C@@H](C7=CC(=O)OC7)CC[C@]65O)C4)O[C@@H]3C)O[C@@H]2C)C[C@H](O)[C@@H]1O [Digoxin, digoxin]

Compound: CN1CCN(c2ccc(C(=O)Nc3n[nH]c4ccc(Cc5cc(F)cc(F)c5)cc34)c(NC3CCOCC3)c2)CC1 [Entrectinib, entrectinib]
Papp A→B at 3.5 h, 1 µM (human P-gp): 1.35 ± 0.34 ×10⁻⁶ cm/s
Papp B→A at 3.5 h, 1 µM (human P-gp): 19.7 ± 0.5 ×10⁻⁶ cm/s
Papp A→B at 3.5 h, 1 µM (mouse P-gp): 0.99 ± 0.04 ×10⁻⁶ cm/s
Papp B→A at 3.5 h, 1 µM (mouse P-gp): 25.5 ± 1.9 ×10⁻⁶ cm/s
half-life at 10 µM [1]: 9.6 min
fraction unbound at 5 h [5]: 0.0022 ± 0.0005
fraction unbound at 5 h [6]: 0.0034 ± 0.0003
fraction unbound at 5 h [7]: 0.0032 ± 0.0009
Survival through day 28 ([8]; 1 mg/kg b.i.d. oral): 0%
Survival through day 28 ([8]; 5 mg/kg b.i.d. oral): 11%
Survival through day 28 ([8]; 10 mg/kg q.d. oral): 67%
Survival through day 28 ([8]; 15 mg/kg b.i.d. oral): 100%
Survival through day 28 ([8]; 30 mg/kg q.d. oral): 100%
Survival through day 28 ([8]; 60 mg/kg b.i.d. oral): 100%
Tolerability ([8]; all dose levels tested (1, 5, 15, 60 mg/kg b.i.d.; 10, 30 mg/kg q.d.)): well tolerated
AUC(0-t) ([9]; 2 mg/kg/day): 1.3 µM·h
AUC(0-t) ([9]; 10 mg/kg/day): 11.3 µM·h
AUC(0-t) ([9]; 30 mg/kg): 24.5 to 54.8 µM·h
AUC(0-t) ([9]; 30 mg/kg/day): 38.3 µM·h
AUC(0-t) ([9]; 60 mg/kg/day): 45.3 µM·h
AUC(0-t) ([9]; 120 mg/kg/day): 99.9 µM·h
average plasma concentration (AUC24h/24 hours) ([9]; oral, daily dose of 30 mg/kg): ~ 1.6 µM
Kp ([10]; brain / plasma, po, 20 mg/kg): 0.185
concentration in the CSF ([10]; single oral dose 20 mg/kg, inferior to the LLOQ, data not shown): < 1 nM
antitumor effect in intracranial NTRK1 fusion-positive glioma model (BNN2 and BNN4 gliomas): tumor growth inhibition and full survival benefit
Cave,ss, reported clinical concentration [3]: 2000 nM
AUC24h at SS in patients [3, 12]: 48 µM·h
estimated average plasma concentration in patients [3, 12]: approximately 2.0 µM
Kp at 5 h ([4]; male, Sprague Dawley, in vivo, Measured CSF/Cu,p ratio, 5 h): 0.25
Kp at 6 h ([4]; male, Sprague Dawley, in vivo, Measured CSF/Cu,p ratio, 6 h): 0.18
δ brain concentration at SS [4]: 276 (71.2–186) nM
δ plasma concentration at SS [4]: 140 (109–430) nM
δ brain concentration at SS ([4]; listed as entrectinib): 276 nM
δ plasma concentration at SS ([4]; listed as entrectinib): 140 nM

Papp A→B at 3.5 h, 1 µM (human P-gp): 1.85 ×10⁻⁶ cm/s
Papp B→A at 3.5 h, 1 µM (human P-gp): 18.2 ± 3.7 ×10⁻⁶ cm/s
efflux ratio at 3.5 h, 1 µM (human P-gp): 10
Papp A→B at 3.5 h, 1 µM (mouse P-gp): 0.82 ± 0.07 ×10⁻⁶ cm/s
Papp B→A at 3.5 h, 1 µM (mouse P-gp): 16.1 ± 0.7 ×10⁻⁶ cm/s
efflux ratio at 3.5 h, 1 µM (mouse P-gp): 20
half-life at 10 µM [1]: 6.2 min
Kp at 4 h ([4]; male, Sprague Dawley, in vivo): 0.027
Kp at 5 h ([4]; male, Sprague Dawley, in vivo): 0.031
δ brain concentration at SS [4]: 1.6 (3.74–5.60) nM
δ plasma concentration at SS [4]: 2 (46.3–82.2) nM
Compound: O=C(Nc1cnn2ccc(N3CCC[C@@H]3c3cc(F)ccc3F)nc12)N1CC[C@H](O)C1 [Larotrectinib, larotrectinib]
known substrate for P-gp (P-gp): known substrates for P-gp
Fu in plasma [2]: 0.349
IC50 (TRKA/B/C): 5 to 11 nM
substrate of breast cancer resistance protein (BCRP) [11]: substrate
Cave,ss, reported clinical concentration [3]: 423 nM
